The source of these data is US20150087627A1, “COMBINATION OF KINASE INHIBITORS AND USES THEREOF” (Intellikine LLC, priority 2011, published 2015).

The structures appear in SMILES notation.

A word on the IC50: it is the concentration needed to halve the response being measured.

Holding throughout (type): biochemical
Experiment [1] has as its target T1, PI3K α (p110α/p85α) (Homo sapiens, UniProt P42336).
T1 construct: purchased Upstate / Millipore Corporation
Kind of experiment: PI 3-Kinase (human) HTRF assay, PI3K α. The conditions noted are these: read-out: PI3K α IC50. For orientation: TR-FRET usually uses a lanthanide donor and a delayed reading to cut background.

Experiment [2] concerns the target T2, PI3K β (p110β/p85α) (Homo sapiens, UniProt P42338).
T2 construct: purchased Upstate / Millipore Corporation
Kind of experiment: PI 3-Kinase (human) HTRF assay, PI3K β. The conditions noted are these: read-out: PI3K β IC50.

Experiment [3] deals with T3, PI3K γ (p110γ) (Homo sapiens, UniProt P48736).
T3 construct: purchased Upstate / Millipore Corporation
The experiment is described as follows: PI 3-Kinase (human) HTRF assay, PI3K γ. The settings on record: read-out: PI3K γ IC50.

The target of experiment [4] is T4, PI3K δ (Homo sapiens, UniProt O00329).
T4 construct: purchased Upstate / Millipore Corporation
The experiment is described as follows: PI 3-Kinase (human) HTRF assay, PI3K δ. The settings on record: read-out: PI3K δ IC50.

T2 sequence (P42338 whole entry): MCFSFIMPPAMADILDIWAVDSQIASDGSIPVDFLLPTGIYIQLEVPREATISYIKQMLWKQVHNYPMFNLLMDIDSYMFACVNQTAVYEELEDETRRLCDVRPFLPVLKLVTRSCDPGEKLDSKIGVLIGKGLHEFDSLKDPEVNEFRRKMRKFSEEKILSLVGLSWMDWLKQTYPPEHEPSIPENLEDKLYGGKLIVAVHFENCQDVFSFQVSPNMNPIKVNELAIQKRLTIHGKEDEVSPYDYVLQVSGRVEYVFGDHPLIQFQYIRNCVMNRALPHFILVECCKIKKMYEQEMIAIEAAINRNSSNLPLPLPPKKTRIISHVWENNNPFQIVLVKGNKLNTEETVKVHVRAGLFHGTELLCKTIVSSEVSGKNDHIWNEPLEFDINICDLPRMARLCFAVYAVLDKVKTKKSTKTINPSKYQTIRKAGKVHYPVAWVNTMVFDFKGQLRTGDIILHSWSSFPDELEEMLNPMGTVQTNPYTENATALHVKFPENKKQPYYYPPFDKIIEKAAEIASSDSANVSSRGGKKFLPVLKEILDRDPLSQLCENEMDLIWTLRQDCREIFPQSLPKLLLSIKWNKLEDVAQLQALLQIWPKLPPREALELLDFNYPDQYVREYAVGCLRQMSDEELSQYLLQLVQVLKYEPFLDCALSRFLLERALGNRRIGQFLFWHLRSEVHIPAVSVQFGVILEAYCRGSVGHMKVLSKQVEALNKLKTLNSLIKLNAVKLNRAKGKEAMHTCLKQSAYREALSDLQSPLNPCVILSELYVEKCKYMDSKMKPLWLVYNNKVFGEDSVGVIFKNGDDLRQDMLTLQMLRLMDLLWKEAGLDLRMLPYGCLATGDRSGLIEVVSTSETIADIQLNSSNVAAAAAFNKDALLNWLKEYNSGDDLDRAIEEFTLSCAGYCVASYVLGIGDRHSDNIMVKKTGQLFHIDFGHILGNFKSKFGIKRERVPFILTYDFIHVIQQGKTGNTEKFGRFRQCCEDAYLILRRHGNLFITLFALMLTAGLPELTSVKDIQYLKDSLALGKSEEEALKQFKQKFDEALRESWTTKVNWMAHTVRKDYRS
T2 sequence (P27986 whole entry partner): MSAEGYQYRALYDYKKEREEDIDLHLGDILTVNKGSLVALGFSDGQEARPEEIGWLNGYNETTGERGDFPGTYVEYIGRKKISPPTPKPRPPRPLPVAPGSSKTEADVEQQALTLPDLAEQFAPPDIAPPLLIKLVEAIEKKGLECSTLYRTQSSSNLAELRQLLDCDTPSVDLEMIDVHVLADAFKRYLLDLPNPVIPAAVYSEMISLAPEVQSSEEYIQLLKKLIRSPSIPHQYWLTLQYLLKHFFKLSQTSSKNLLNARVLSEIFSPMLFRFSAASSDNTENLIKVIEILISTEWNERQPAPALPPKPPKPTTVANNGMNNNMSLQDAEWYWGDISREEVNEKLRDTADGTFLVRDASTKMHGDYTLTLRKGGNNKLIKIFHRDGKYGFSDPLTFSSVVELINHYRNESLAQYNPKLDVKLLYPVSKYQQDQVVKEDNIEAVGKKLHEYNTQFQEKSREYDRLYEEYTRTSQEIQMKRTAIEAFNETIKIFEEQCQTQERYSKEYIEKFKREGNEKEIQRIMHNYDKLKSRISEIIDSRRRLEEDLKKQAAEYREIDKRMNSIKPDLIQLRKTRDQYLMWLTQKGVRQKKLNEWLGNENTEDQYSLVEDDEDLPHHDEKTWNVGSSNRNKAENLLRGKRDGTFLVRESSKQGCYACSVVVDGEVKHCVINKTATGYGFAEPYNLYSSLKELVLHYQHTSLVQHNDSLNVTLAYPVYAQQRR
T3 sequence (P48736 whole entry): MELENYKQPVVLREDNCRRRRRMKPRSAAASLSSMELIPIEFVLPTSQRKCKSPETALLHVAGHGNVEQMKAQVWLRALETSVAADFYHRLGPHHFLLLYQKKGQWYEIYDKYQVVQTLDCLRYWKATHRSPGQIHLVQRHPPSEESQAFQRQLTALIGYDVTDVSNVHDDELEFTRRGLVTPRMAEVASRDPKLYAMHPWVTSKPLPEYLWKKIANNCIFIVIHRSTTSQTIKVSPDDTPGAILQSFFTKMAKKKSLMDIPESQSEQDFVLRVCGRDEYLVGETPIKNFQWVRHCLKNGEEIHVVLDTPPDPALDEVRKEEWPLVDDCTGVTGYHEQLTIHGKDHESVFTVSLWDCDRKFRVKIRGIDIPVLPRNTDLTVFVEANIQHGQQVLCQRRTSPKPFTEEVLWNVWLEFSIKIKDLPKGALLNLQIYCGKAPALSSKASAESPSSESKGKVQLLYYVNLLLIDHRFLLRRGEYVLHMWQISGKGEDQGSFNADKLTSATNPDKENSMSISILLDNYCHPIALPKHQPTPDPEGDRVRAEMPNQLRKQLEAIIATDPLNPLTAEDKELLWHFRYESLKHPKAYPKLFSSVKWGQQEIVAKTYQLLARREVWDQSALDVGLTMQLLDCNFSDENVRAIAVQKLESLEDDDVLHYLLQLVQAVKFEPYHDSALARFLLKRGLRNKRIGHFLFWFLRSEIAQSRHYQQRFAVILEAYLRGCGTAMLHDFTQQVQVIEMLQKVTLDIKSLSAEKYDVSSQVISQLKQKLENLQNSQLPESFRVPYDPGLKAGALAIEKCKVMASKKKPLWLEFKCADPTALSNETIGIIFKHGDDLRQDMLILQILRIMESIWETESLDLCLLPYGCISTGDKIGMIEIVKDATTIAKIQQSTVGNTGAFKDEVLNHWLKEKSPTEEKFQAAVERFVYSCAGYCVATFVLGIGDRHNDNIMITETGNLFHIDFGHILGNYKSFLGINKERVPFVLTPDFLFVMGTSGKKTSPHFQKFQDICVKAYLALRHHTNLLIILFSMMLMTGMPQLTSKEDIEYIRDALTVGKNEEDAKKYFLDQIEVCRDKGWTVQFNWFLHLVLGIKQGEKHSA
T1 sequence (P42336 whole entry): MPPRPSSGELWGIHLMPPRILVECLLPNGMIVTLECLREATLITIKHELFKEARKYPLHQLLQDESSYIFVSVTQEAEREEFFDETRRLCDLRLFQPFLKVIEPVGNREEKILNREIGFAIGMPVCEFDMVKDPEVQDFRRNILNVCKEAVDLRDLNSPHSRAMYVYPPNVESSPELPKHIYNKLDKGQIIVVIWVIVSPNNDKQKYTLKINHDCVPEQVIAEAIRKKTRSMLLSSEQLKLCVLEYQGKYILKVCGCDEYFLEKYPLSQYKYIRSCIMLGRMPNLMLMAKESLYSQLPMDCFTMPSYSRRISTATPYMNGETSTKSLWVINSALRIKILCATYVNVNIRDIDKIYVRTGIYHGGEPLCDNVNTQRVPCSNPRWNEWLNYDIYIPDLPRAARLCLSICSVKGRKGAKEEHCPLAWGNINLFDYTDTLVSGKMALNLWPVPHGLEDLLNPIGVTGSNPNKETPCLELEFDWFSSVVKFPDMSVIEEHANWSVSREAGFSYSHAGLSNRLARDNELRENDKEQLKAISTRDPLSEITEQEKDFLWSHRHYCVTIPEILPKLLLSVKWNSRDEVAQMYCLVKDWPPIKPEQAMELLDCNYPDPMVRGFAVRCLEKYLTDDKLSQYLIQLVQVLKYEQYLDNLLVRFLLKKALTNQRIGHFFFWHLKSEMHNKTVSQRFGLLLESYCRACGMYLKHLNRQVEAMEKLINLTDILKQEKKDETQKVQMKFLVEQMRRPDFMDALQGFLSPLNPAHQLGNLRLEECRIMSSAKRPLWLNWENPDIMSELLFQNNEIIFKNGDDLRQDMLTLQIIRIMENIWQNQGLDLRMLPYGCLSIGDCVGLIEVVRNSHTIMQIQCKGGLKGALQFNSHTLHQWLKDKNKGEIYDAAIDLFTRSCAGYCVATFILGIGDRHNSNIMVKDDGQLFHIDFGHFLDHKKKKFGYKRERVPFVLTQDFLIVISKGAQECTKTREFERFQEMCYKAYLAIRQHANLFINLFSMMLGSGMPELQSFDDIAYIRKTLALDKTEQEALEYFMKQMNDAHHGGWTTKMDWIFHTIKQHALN
T1 sequence (P27986 whole entry partner): as the sequence (P27986 whole entry partner) above
T4 sequence (O00329 whole entry): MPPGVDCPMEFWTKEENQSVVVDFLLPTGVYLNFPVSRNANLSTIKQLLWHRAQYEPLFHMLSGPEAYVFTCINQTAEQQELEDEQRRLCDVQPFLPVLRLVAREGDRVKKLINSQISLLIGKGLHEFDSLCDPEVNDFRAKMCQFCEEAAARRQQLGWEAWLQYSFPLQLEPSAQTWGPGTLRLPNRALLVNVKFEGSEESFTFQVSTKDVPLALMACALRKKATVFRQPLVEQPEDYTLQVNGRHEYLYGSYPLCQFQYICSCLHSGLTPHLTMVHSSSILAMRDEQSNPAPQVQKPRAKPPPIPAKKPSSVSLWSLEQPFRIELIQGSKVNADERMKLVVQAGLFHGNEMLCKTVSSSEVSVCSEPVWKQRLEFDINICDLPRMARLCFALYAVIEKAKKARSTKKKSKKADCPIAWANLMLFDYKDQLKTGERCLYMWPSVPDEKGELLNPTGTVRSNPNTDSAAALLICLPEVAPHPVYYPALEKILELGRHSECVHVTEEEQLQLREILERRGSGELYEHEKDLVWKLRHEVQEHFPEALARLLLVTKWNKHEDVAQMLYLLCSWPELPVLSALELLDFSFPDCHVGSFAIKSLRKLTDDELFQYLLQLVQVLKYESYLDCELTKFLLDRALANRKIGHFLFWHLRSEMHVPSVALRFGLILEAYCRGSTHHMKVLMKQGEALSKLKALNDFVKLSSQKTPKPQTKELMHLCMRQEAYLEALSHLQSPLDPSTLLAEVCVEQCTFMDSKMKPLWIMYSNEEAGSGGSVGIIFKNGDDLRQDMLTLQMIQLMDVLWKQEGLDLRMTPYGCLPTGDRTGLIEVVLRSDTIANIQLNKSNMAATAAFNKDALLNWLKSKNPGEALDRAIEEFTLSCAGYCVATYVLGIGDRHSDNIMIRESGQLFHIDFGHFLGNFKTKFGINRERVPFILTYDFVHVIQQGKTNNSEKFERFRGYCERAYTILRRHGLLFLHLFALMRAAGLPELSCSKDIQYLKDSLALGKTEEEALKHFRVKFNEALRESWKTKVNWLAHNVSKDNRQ
T4 sequence (P27986 whole entry partner): as the sequence (P27986 whole entry partner) above

For the molecule `Nc1nc2cc(-c3ccn4ncc(C(=O)N5CCC(N6CCOCC6)CC5)c4c3)ccc2o1` [Compound 398], the IC50 in experiment [1] was under 1 µM; in experiment [2] it was under 10 µM; in experiment [3], under 10 µM; in experiment [4], under 10 µM.

Take `C[C@H]1CN(c2cnc3scc(-c4ccc5oc(N)nc5c4)c3c2)CCN1` [Compound 399]: the 50% inhibitory concentration (IC50) in experiment [1], in experiment [2], in experiment [3] and in experiment [4] was over 10 µM in each case.

As for `CC(=O)Nc1cc2ccc(-c3cc(F)c4oc(N)nc4c3)cn2n1` [Compound 401], the concentration for half-maximal inhibition (IC50) in experiment [1] was over 10 µM; in experiment [2], over 10 µM; in experiment [3], under 10 µM; in experiment [4], over 10 µM.

As to `C[C@H]1CN(c2nc3cc(-c4ccc5oc(N)nc5c4)ccc3nc2N)CCN1` [Compound 403], the half-maximal inhibitory concentration (IC50) is under 10 µM in experiment [1], over 10 µM in experiment [2], over 10 µM in experiment [3] and over 10 µM in experiment [4].

Turning to `O=C(c1cnc2ccc(-c3ccc4oc(Nc5ccccc5)nc4c3)cn12)N1CCOCC1` [Compound 407], the IC50 in experiment [1] was over 10 µM; in experiment [2], under 10 µM; in experiment [3], over 10 µM; in experiment [4] it was over 10 µM.

Consider `CN1CCC(Nc2nc3cc(-c4ccc5ncc(C(=O)N6CCOCC6)n5c4)ccc3o2)CC1` [Compound 408], for which the concentration for half-maximal inhibition (IC50) in experiment [1], in experiment [2], in experiment [3] and in experiment [4] was over 10 µM throughout.

As for `O=C(c1cnc2ccc(-c3ccc4oc(NC5CC5)nc4c3)cn12)N1CCOCC1` [Compound 409], the half-inhibitory concentration (IC50) is under 10 µM in experiment [1], over 10 µM in experiment [2], over 10 µM in experiment [3] and over 10 µM in experiment [4].

Take `Nc1ncc(-c2ccc3ncc(C(=O)N4CCOCC4)n3c2)cc1C(F)(F)F` [Compound 410]: the IC50 was under 10 µM in experiment [1], over 10 µM in experiment [2], over 10 µM in experiment [3] and over 10 µM in experiment [4].

For `CC(Oc1nc(-c2ccc3ncc(C(=O)N4CCOCC4)n3c2)cnc1N)C(F)(F)F` (stereo not drawn) [Compound 411], the IC50 was under 0.1 µM in experiment [1], under 10 µM in experiment [2], under 1 µM in experiment [3] and under 10 µM in experiment [4].

Consider `Nc1nc2nc(-c3ccc4ncc(C(=O)N5CCOCC5)n4c3)ccc2o1` [Compound 412], for which the concentration for half-maximal inhibition (IC50) in experiment [1] was under 10 µM; in experiment [2] it was over 10 µM; in experiment [3], over 10 µM; in experiment [4] it was over 10 µM.

For `Nc1nc2cc(-c3ccc4ncc(N5CCNC(C(F)F)C5)nc4c3)ccc2o1` (stereo not drawn) [Compound 413], the IC50 in experiment [1] was under 0.1 µM; in experiment [2], under 1 µM; in experiment [3] it was under 1 µM; in experiment [4] it was under 10 µM.

In the case of `COc1ncc(-c2ccc3ncc(C(=O)N4CCOCC4)n3c2)cc1NS(C)(=O)=O` [Compound 416], the half-inhibitory concentration (IC50) in experiment [1] is under 0.1 µM; in experiment [2], under 10 µM; in experiment [3], under 1 µM; in experiment [4], under 10 µM.

For `COc1ncc(-c2ccc3ncc(C(=O)N4CCOCC4)n3c2)cc1NS(=O)(=O)c1ccccc1` [Compound 420], the IC50 in experiment [1] was under 0.1 µM; in experiment [2], over 10 µM; in experiment [3] it was under 1 µM; in experiment [4], under 1 µM.

With `COc1ncc(-c2ccc3ncc(C(=O)N4CCOCC4)n3c2)cc1NS(=O)(=O)c1ccc(F)cc1` [Compound 421], the 50% inhibitory concentration (IC50) in experiment [1] was under 0.1 µM; in experiment [2], under 1 µM; in experiment [3], under 0.1 µM; in experiment [4], under 0.1 µM.

For `COc1ncc(-c2ccc3ncc(C(=O)N4CCOCC4)n3c2)cc1NS(=O)(=O)c1ccccc1F` [Compound 422], the IC50 is under 0.1 µM in experiment [1], under 10 µM in experiment [2], under 0.1 µM in experiment [3] and under 1 µM in experiment [4].

Regarding `O=C(c1cnc2ccc(-c3cncc(NS(=O)(=O)c4ccccc4)c3)cn12)N1CCOCC1` [Compound 424], the IC50 in experiment [1] is under 1 µM; in experiment [2] it was over 10 µM; in experiment [3] it was under 1 µM; in experiment [4], under 10 µM.

Regarding `O=C(c1cnc2ccc(-c3cncc(NS(=O)(=O)c4ccc(F)cc4F)c3)cn12)N1CCOCC1` [Compound 425], the IC50 was under 0.1 µM in experiment [1], over 10 µM in experiment [2], under 0.1 µM in experiment [3] and under 1 µM in experiment [4].

For `CC(=O)n1nc(N)c2ccc(-c3ccc4oc(N)nc4c3)cc21` [Compound 426], the IC50 in experiment [1], in experiment [2], in experiment [3] and in experiment [4] was over 10 µM in each case.

Regarding `Nc1nc2cc(-c3ccc4c(N)n[nH]c4c3)ccc2o1` [Compound 428], the IC50 in experiment [1] was under 10 µM; in experiment [2] it was under 10 µM; in experiment [3], under 1 µM; in experiment [4] it was over 10 µM.

Turning to `Nc1nc2cc(-c3cc(F)c4oc(N)nc4c3)ccc2o1` [Compound 432], the IC50 in experiment [1] was under 10 µM; in experiment [2], under 1 µM; in experiment [3] it was under 0.1 µM; in experiment [4] it was over 10 µM.

`CC(=O)Nc1nc2cc(-c3cc(F)c4oc(N)nc4c3)ccc2s1` [Compound 435]: the IC50 in experiment [1] is under 10 µM; in experiment [2], under 10 µM; in experiment [3], under 0.1 µM; in experiment [4], over 10 µM.

As to `Nc1nc2cc(-c3ccc4sc(N)nc4c3)cc(F)c2o1` [Compound 437], the half-inhibitory concentration (IC50) in experiment [1] was under 10 µM; in experiment [2], under 1 µM; in experiment [3], under 1 µM; in experiment [4] it was over 10 µM.

Take `Nc1nc2ccc(-c3cc(F)c4ncc(C(=O)N5CCOCC5)n4c3)cc2o1` [Compound 439]: the half-inhibitory concentration (IC50) is under 10 µM in experiment [1], over 10 µM in experiment [2], over 10 µM in experiment [3] and over 10 µM in experiment [4].

Turning to `CNS(=O)(=O)c1cccc(-c2ccc3ncc(C(=O)N4CCOCC4)n3c2)c1` [Compound 442], the IC50 in experiment [1], in experiment [2], in experiment [3] and in experiment [4] was over 10 µM throughout.

As for `CS(=O)(=O)Nc1cccc(-c2ccc3ncc(C(=O)N4CCOCC4)n3c2)c1` [Compound 443], the 50% inhibitory concentration (IC50) in experiment [1], in experiment [2], in experiment [3] and in experiment [4] was over 10 µM in each case.

Turning to `CN1CCN(n2cnc3ccc(-c4ccc5oc(N)nc5c4)cc3c2=O)CC1` [Compound 446], the IC50 was under 1 µM in experiment [1], over 10 µM in experiment [2], over 10 µM in experiment [3] and over 10 µM in experiment [4].

In the case of `Cc1cc(-c2ccc3oc(N)nc3c2)cn2c(C(=O)N3CCOCC3)cnc12` [Compound 448], the concentration for half-maximal inhibition (IC50) was under 1 µM in experiment [1], over 10 µM in experiment [2], under 10 µM in experiment [3] and over 10 µM in experiment [4].

On to `Cc1cc(-c2ccc3nc(N)oc3c2)cn2c(C(=O)N3CCOCC3)cnc12` [Compound 449], for which the IC50 in experiment [1] was under 1 µM; in experiment [2] it was under 1 µM; in experiment [3] it was under 0.1 µM; in experiment [4] it was over 10 µM.

`CNS(=O)(=O)c1cncc(-c2ccc3ncc(C(=O)N4CCOCC4)n3c2)c1` [Compound 450]: the 50% inhibitory concentration (IC50) was under 10 µM in experiment [1], over 10 µM in experiment [2], over 10 µM in experiment [3] and over 10 µM in experiment [4].

Turning to `O=C(c1cnc2ccc(-c3cccc(NS(=O)(=O)c4ccccc4)c3)cn12)N1CCOCC1` [Compound 453], the concentration for half-maximal inhibition (IC50) in experiment [1] was under 10 µM; in experiment [2], over 10 µM; in experiment [3], under 10 µM; in experiment [4] it was over 10 µM.

As to `O=C(c1cnc2ccc(-c3cccc(NS(=O)(=O)c4ccc(F)cc4F)c3)cn12)N1CCOCC1` [Compound 454], the IC50 in experiment [1] was under 10 µM; in experiment [2] it was over 10 µM; in experiment [3], under 10 µM; in experiment [4], under 10 µM.

`COc1ccc(-c2ccc3ncc(C(=O)N4CCOCC4)n3c2)cc1NS(C)(=O)=O` [Compound 456]: the half-inhibitory concentration (IC50) in experiment [1], in experiment [2], in experiment [3] and in experiment [4] was over 10 µM each time.

Consider `O=C(c1cnc2ccc(-c3cnc(Cl)c(NS(=O)(=O)c4ccc(F)cc4)c3)cn12)N1CCOCC1` [Compound 457], for which the concentration for half-maximal inhibition (IC50) in experiment [1], in experiment [2], in experiment [3] and in experiment [4] was under 0.1 µM each time.

With `O=C(c1cnc2ccc(-c3cnc(Cl)c(NS(=O)(=O)c4cccc(F)c4)c3)cn12)N1CCOCC1` [Compound 458], the 50% inhibitory concentration (IC50) in experiment [1], in experiment [2], in experiment [3] and in experiment [4] was under 0.1 µM each time.

Regarding `CS(=O)(=O)Nc1cc(-c2ccc3ncc(C(=O)N4CCOCC4)n3c2)ccc1Cl` [Compound 460], the IC50 in experiment [1] was under 10 µM; in experiment [2], over 10 µM; in experiment [3] it was over 10 µM; in experiment [4] it was over 10 µM.

Consider `CO[C@H]1CCN(C(=O)c2cnc3ccc(-c4ccc5oc(N)nc5c4)cn23)C1` [Compound 463], for which the concentration for half-maximal inhibition (IC50) was under 0.1 µM in experiment [1], under 10 µM in experiment [2], under 1 µM in experiment [3] and under 10 µM in experiment [4].

Take `CO[C@@H]1CCN(C(=O)c2cnc3ccc(-c4ccc5oc(N)nc5c4)cn23)C1` [Compound 464]: the half-maximal inhibitory concentration (IC50) in experiment [1] was under 0.1 µM; in experiment [2], over 10 µM; in experiment [3], under 1 µM; in experiment [4], over 10 µM.

On to `Nc1nc2cc(-c3ccc4ncc(C(=O)N5CC[C@H](N6CCOCC6)C5)n4c3)ccc2o1` [Compound 465], for which the IC50 in experiment [1] is under 0.1 µM; in experiment [2], over 10 µM; in experiment [3] it was under 1 µM; in experiment [4], over 10 µM.

With `Nc1nc2cc(-c3ccc4ncc(C(=O)N5CC[C@@H](N6CCOCC6)C5)n4c3)ccc2o1` [Compound 466], the IC50 is under 1 µM in experiment [1], under 10 µM in experiment [2], under 1 µM in experiment [3] and under 10 µM in experiment [4].
